According to patent publication US20200352931A1, “OXALAMIDES AS MODULATORS OF INDOLEAMINE 2,3-DIOXYGENASE” (PHENEX DISCOVERY VERWALTUNGS-GMBH, priority 2017, published 2020):

biological target: T1, Indoleamine 2,3-Dioxygenase (IDO1) in SKOV-3 cells (Homo sapiens, UniProt P14902); assay: SKOV-3 cellular indoleamine 2,3-dioxygenase assay; conditions: 50 ng/ml Interferon gamma, 100 μM L-Tryptophan, 24 hours, N-Formylkynurenin fluorescence, read-out: cell based activity (IC50)
T1 construct: endogenous in cells; host or cells: SKOV-3 (ATCC HTB-77), stimulated with 50 ng/ml interferon gamma
T1 sequence (P14902 whole entry): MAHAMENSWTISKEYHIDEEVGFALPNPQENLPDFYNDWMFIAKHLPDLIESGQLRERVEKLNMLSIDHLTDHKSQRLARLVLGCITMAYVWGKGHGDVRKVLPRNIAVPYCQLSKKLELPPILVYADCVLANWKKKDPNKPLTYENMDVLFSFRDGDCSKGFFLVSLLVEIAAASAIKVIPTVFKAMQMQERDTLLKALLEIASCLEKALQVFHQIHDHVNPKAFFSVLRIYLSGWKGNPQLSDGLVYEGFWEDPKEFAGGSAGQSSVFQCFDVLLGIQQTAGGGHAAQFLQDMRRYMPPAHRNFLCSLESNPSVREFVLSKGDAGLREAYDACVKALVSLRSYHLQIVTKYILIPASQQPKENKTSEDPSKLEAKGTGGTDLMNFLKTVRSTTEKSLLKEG
Protocol: SKOV-3 Cellular Indoleamine 2,3-Dioxygenase Assay
SKOV-3 cells were obtained from the American Type Culture Collection (ATCC® HTB-77™) and maintained in McCoy's medium (Pan Biotech) supplemented with 10% fetal bovine serum and 1% Penicilin/Streptomycin. Cells were kept at 37° C. in a humidified incubator with 5% CO2. For assay preparation, cells were seeded at a density of 2*10^5/m into black clear bottom 96 well plates in 100 μl medium/well supplemented with 50 ng/ml Interferon gamma (eBioscience, Thermo Fisher Scientific). After cells fully adhered to the plate, dilution series of compounds were added in medium containing additional L-Tryptophan to a final L-Tryptophan concentration of 100 μM. The cells were incubated for 24 hours. Detection of produced N-Formylkynurenin was performed by addition of 3-Methylpiperidine to a final concentration of 200 mM. The plates were sealed and heated to 65° C. for 20 minutes in a water bath. After cooling the fluorescence of each well was recorded with a Victor™ X4 (PerkinElmer) plate reader at an emission wavelength of 535 nm and excitation at 405 nm (Tomek et al.; Anal Bioanal Chem (2013) 405:2515-2524., Tomek et al.; Biochim Biophys Acta. 2015 September; 1850(9):1772-80).

Row | IC50 [nM] | SMILES
1 | < 100 | O=C(Nc1ccc(Cl)cc1F)C(=O)N1CCC(c2ccnc3ccccc23)CC1 [1/2]
2 | < 100 | O=C(Nc1ccc(Cl)cc1F)C(=O)N1CCC(c2ccnc3ccc(F)cc23)CC1 [1/6]
3 | < 100 | N#Cc1ccc(NC(=O)C(=O)N2CCC(c3ccnc4ccc(F)cc34)CC2)cc1 [1/14]
4 | < 100 | O=C(Nc1ccc(Cl)c(F)c1)C(=O)N1CCC(c2ccnc3ccc(F)cc23)CC1 [1/18]
5 | < 100 | O=C(Nc1cc(F)c(Cl)cc1F)C(=O)N1CCC(c2ccnc3ccc(F)cc23)CC1 [1/19]
6 | > 1000 | O=C(Nc1ccc(C(F)(F)F)c(Cl)c1)C(=O)N1CCC(c2ccnc3ccc(F)cc23)CC1 [1/20]
7 | 100 to 1000 | O=C(Nc1ccc(C(F)(F)F)c(F)c1)C(=O)N1CCC(c2ccnc3ccc(F)cc23)CC1 [1/21]
8 | < 100 | O=C(Nc1ccc(C(F)F)cc1)C(=O)N1CCC(c2ccnc3ccc(F)cc23)CC1 [1/22]
9 | < 100 | N#Cc1ccc(NC(=O)C(=O)N2CCC(c3ccnc4ccc(F)cc34)CC2)c(F)c1 [1/23]
10 | < 100 | Cc1ccc(NC(=O)C(=O)N2CCC(c3ccnc4ccc(F)cc34)CC2)c(F)c1 [1/24]
11 | < 100 | O=C(Nc1ccc(C(F)F)cc1F)C(=O)N1CCC(c2ccnc3ccc(F)cc23)CC1 [1/25]
12 | < 100 | O=C(Nc1ccc(Br)cc1F)C(=O)N1CCC(c2ccnc3ccc(F)cc23)CC1 [1/26]
13 | < 100 | O=C(Nc1ccc(Br)cc1)C(=O)N1CCC(c2ccnc3ccc(F)cc23)CC1 [1/27]
14 | < 100 | O=C(Nc1ccc(F)cc1)C(=O)N1CCC(c2ccnc3ccc(F)cc23)CC1 [1/28]
15 | < 100 | O=C(Nc1ncc(Cl)cc1F)C(=O)N1CCC(c2ccnc3ccc(F)cc23)CC1 [1/29]
16 | < 100 | O=C(Nc1ccc(Cl)cc1)C(=O)N1CCC(c2ccnc3cc(F)ccc23)CC1 [1/31]
17 | 100 to 1000 | Cc1cc(Cl)ccc1NC(=O)C(=O)N1CCC(c2ccnc3ccc(F)cc23)CC1 [1/32]
18 | < 100 | O=C(Nc1ccc(Cl)cc1)C(=O)N1CCC(c2ccnc3ccc(Cl)cc23)CC1 [1/47]
19 | > 1000 | O=C(NCc1ccc(Cl)cc1)C(=O)N1CCC(c2ccnc3ccc(F)cc23)CC1 [2/1]
20 | > 1000 | O=C(NCc1ccc(Cl)o1)C(=O)N1CCC(c2ccnc3ccc(F)cc23)CC1 [2/2]
21 | > 1000 | CN(C(=O)C(=O)N1CCC(c2ccnc3ccc(F)cc23)CC1)c1ccc(Cl)cn1 [2/3]
22 | 100 to 1000 | O=C(Nc1ccc(C(F)(F)F)cn1)C(=O)N1CCC(c2ccnc3ccc(F)cc23)CC1 [5/2]
23 | 100 to 1000 | Cc1nc(NC(=O)C(=O)N2CCC(c3ccnc4ccc(F)cc34)CC2)ccc1Cl [5/3]
24 | 100 to 1000 | O=C(NC1Cc2ccccc2C1)C(=O)N1CCC(c2ccnc3ccc(F)cc23)CC1 [5/7]
25 | > 1000 | NS(=O)(=O)c1ccc(NC(=O)C(=O)N2CCC(c3ccnc4ccc(F)cc34)CC2)cc1 [5/8]
26 | > 1000 | NC(=O)c1ccc(NC(=O)C(=O)N2CCC(c3ccnc4ccc(F)cc34)CC2)cc1 [5/9]
27 | > 1000 | CS(=O)(=O)c1ccc(NC(=O)C(=O)N2CCC(c3ccnc4ccc(F)cc34)CC2)cc1 [5/10]
28 | < 100 | O=C(Nc1ccc(C(F)(F)F)cc1)C(=O)N1CCC(c2ccnc3ccc(F)cc23)CC1 [7/1]
29 | < 100 | O=C(Nc1csc(Cl)c1)C(=O)N1CCC(c2ccnc3ccc(F)cc23)CC1 [7/2]

Second part, the compound before the results:

Row | SMILES | IC50 [nM]
30 | O=C(Nc1ccc(Cl)cc1)C(=O)N1CC[C@H](c2ccnc3ccc(F)cc23)[C@H](O)C1 (single isomer, unassigned) [10/1a] | 100 to 1000
31 | O=C(Nc1ccc(Cl)cc1)C(=O)N1CC[C@@H](c2ccnc3ccc(F)cc23)[C@@H](O)C1 (single isomer, unassigned) [10/1b] | > 1000
32 | CO[C@@H]1CN(C(=O)C(=O)Nc2ccc(Cl)cc2)CC[C@H]1c1ccnc2ccc(F)cc12 (single isomer, unassigned) [10/2a] | < 100
33 | CO[C@H]1CN(C(=O)C(=O)Nc2ccc(Cl)cc2)CC[C@@H]1c1ccnc2ccc(F)cc12 (single isomer, unassigned) [10/2b] | < 100
34 | O=C(Nc1ccc(Cl)cc1)C(=O)N1CC[C@@H](c2ccnc3ccc(F)cc23)[C@H](O)C1 (single isomer, unassigned) [Example 10a, trans-N-(4-Chlorophenyl)-2-(4-(6-fluoroquinolin-4-yl)-3-hydroxypiperidin-1-yl)-2-oxoacetamide] | < 100
35 | O=C(Nc1ccc(Cl)cc1)C(=O)N1CC[C@@H](c2ccnc3ccc(F)cc23)[C@H](O)C1 (single isomer, unassigned) [Example 10b, trans-N-(4-Chlorophenyl)-2-(4-(6-fluoroquinolin-4-yl)-3-hydroxypiperidin-1-yl)-2-oxoacetamide] | < 100
36 | O=C(Nc1ccc(Cl)cc1)C(=O)N1CCC(c2ccccc2)CC1 [1/1] | < 100
37 | O=C(Nc1ccc(Cl)cc1)C(=O)N1CCC(c2ccnc3ccccc23)CC1 [1/3] | < 100
38 | O=C(Nc1ccc(Cl)cc1F)C(=O)N1CCC(c2cc(C(F)(F)F)nc3ccccc23)CC1 [1/4] | 100 to 1000
39 | O=C(Nc1ccc(Cl)cc1F)C(=O)N1CCC(c2ccnc3ccnn23)CC1 [1/5] | 100 to 1000
40 | O=C(Nc1ccc(Cl)cc1F)C(=O)N1CCC(c2ccccc2)C1 (stereo not drawn) [1/7] | > 1000
41 | O=C(Nc1ccc(Cl)cn1)C(=O)N1CCCC(c2ccnc3ccccc23)CC1 (stereo not drawn) [1/8] | < 100
42 | O=C(Nc1ccc(Cl)cn1)C(=O)N1CCC(O)(c2ccnc3ccccc23)CC1 [1/9] | > 1000
43 | O=C(Nc1ccc(Cl)cn1)C(=O)N1C2CCC1CC(c1ccnc3ccccc13)C2 (stereo not drawn) [1/10] | 100 to 1000
44 | CC1(C)CC(c2ccnc3ccccc23)CCN1C(=O)C(=O)Nc1ccc(Cl)cn1 (stereo not drawn) [1/11] | < 100
45 | O=C(Nc1ccc(Cl)cc1F)C(=O)N1CCC=C(c2ccnc3ccc(F)cc23)CC1 [1/12] | < 100
46 | O=C(Nc1cccc(C(F)(F)F)c1)C(=O)N1CCC(c2ccnc3ccc(F)cc23)CC1 [1/15] | 100 to 1000
47 | O=C(Nc1ccc(F)c(Cl)c1)C(=O)N1CCC(c2ccccc2)CC1 [1/16] | > 1000
48 | O=C(Nc1ccc(C(F)(F)F)cc1F)C(=O)N1CCC(c2ccnc3ccc(F)cc23)CC1 [1/17] | < 100
49 | O=C(Nc1ccc(Cl)cc1)C(=O)N1CCC(c2ccnc3c(F)cc(F)cc23)CC1 [1/30] | < 100
50 | O=C(Nc1ccc(Cl)cn1)C(=O)N1CCC(c2cc(OC(F)F)nc3ccccc23)CC1 [1/33] | > 1000
51 | COc1cc(C2CCN(C(=O)C(=O)Nc3ccc(Cl)cn3)CC2)c2ccccc2n1 [1/34] | > 1000
52 | O=C(Nc1ccc(Cl)cn1)C(=O)N1CCC(F)(c2ccnc3ccccc23)CC1 [1/35] | 100 to 1000

Row | SMILES | IC50 [nM]
53 | O=C(Nc1ccc(CC(F)(F)F)cc1)C(=O)N1CCC(c2ccnc3ccc(F)cc23)CC1 [1/36] | 100 to 1000
54 | O=C(Nc1ccc(OC(F)(F)F)cc1)C(=O)N1CCC(c2ccnc3ccc(F)cc23)CC1 [1/37] | < 100
55 | O=C(Nc1ccc(SC(F)(F)F)cc1)C(=O)N1CCC(c2ccnc3ccc(F)cc23)CC1 [1/38] | < 100
56 | O=C(Nc1ccc(OC(F)F)cc1)C(=O)N1CCC(c2ccnc3ccc(F)cc23)CC1 [1/39] | < 100
57 | O=C(Nc1ccc(OC(F)F)cc1F)C(=O)N1CCC(c2ccnc3ccc(F)cc23)CC1 [1/40] | < 100
58 | O=C(Nc1ccc(OCC(F)(F)F)cc1)C(=O)N1CCC(c2ccnc3ccc(F)cc23)CC1 [1/41] | 100 to 1000
59 | CC(C)(O)c1ccc2nccc(C3CCN(C(=O)C(=O)Nc4ccc(Cl)cc4)CC3)c2c1 [1/42] | > 1000
60 | NC(=O)c1ccc2nccc(C3CCN(C(=O)C(=O)Nc4ccc(Cl)cc4)CC3)c2c1 [1/43] | > 1000
61 | N#Cc1ccc2nccc(C3CCN(C(=O)C(=O)Nc4ccc(Cl)cc4)CC3)c2c1 [1/44] | 100 to 1000
62 | CC1(C)CN(C(=O)C(=O)Nc2ccc(Cl)cc2)CCC1c1ccnc2ccc(F)cc12 (stereo not drawn) [1/45] | < 100
63 | O=C(Nc1ccc(Cl)cc1)C(=O)N1CCC(c2ccnc3ccc(F)cc23)C(F)(F)C1 (stereo not drawn) [1/46] | < 100
64 | O=C(Nc1ccc(Cl)cc1)C(=O)N1CCC(c2ccnc3cc(Cl)ccc23)CC1 [1/48] | < 100
65 | O=C(Nc1ccc(Cl)cn1)C(=O)N1CCC(c2ccnc(C(F)(F)F)c2Cl)CC1 [2/4] | 100 to 1000
66 | O=C(Nc1ccc(Cl)cn1)C(=O)N1CCC(c2cccc(Cl)c2Cl)CC1 [2/5] | 100 to 1000
67 | N#Cc1ccc(C2CCN(C(=O)C(=O)Nc3ccc(Cl)cn3)CC2)c2ccccc12 [2/6] | 100 to 1000
68 | O=C(N[C@@H]1CCc2ccccc2C1)C(=O)N1CCC(c2ccnc3ccc(F)cc23)CC1 [5/1] | > 1000
69 | O=C(Nc1ccc(-c2cnccn2)cn1)C(=O)N1CCC(c2ccnc3ccc(F)cc23)CC1 [5/4] | 100 to 1000
70 | O=C(Nc1ccc(-c2cncnc2)cn1)C(=O)N1CCC(c2ccnc3ccc(F)cc23)CC1 [5/5] | > 1000
71 | Cc1nc(NC(=O)C(=O)N2CCC(c3ccnc4ccc(F)cc34)CC2)ccc1-c1cnn(C)c1 [5/6] | > 1000
72 | O=C(Nc1ccc(C(F)(F)F)cn1)C(=O)N1CCC(c2ccccc2Cc2ccccc2)CC1 [6/1] | > 1000
73 | O=C(Nc1ccc(C(F)(F)F)cn1)C(=O)N1CCC(c2ccncc2-c2ccccc2)CC1 [6/2] | > 1000
74 | O=C(N[C@@H]1CCc2ccccc21)C(=O)N1CCC(c2ccnc3ccc(F)cc23)CC1 [8/1] | > 1000
75 | O=C(N[C@H]1CCc2ccccc21)C(=O)N1CCC(c2ccnc3ccc(F)cc23)CC1 [8/2] | > 1000
